In patent US9469650B2, “Melampomagnolide B derivatives” (BOARD OF TRUSTEES OF THE UNIVERSITY OF ARKANSAS, priority 2013, dated 2016):

Assays:
HT29 = experiment: panel of 60 human tumor cell lines, growth inhibition (Colon Cancer); conditions: HT29
KM12 = experiment: as above; conditions: KM12
SN12C = experiment: panel of 60 human tumor cell lines, growth inhibition (Renal Cancer)
TK-10 = experiment: as above; conditions: TK-10
MDA-MB-231/ATCC = experiment: panel of 60 human tumor cell lines, growth inhibition (Breast Cancer); conditions: MDA-MB-231/ATCC
MDA-MB-468 = experiment: as above; conditions: MDA-MB-468
OVCAR-3 = experiment: panel of 60 human tumor cell lines, growth inhibition (Ovarian Cancer); conditions: OVCAR-3
OVCAR-8 = experiment: as above; conditions: OVCAR-8
A549/ATCC = experiment: panel of 60 human tumor cell lines, growth inhibition (Non-Small Cell Lung Cancer); conditions: A549/ATCC

Compound: C=C1C(=O)O[C@H]2[C@H]1CC/C(COC(=O)N1CCN(C)CC1)=C\CC[C@@]1(C)O[C@@H]21 [JVM 2-44]
- GI50 (HT29): 5.54 µM
- TGI (HT29): 1.95E−5
- Mean Optical Densities (HT29; Log10 Concentration −4.0): 0.873
- Percent Growth (HT29; Log10 Concentration −4.0): −70%
- Mean Optical Densities (HT29; Log10 Concentration −5.0): 0.502
- Percent Growth (HT29; Log10 Concentration −5.0): 28%
- Mean Optical Densities (HT29; Log10 Concentration −6.0): 1.268
- Percent Growth (HT29; Log10 Concentration −6.0): 112%
- Mean Optical Densities (HT29; Log10 Concentration −7.0): 1.248
- Percent Growth (HT29; Log10 Concentration −7.0): 110%
- Mean Optical Densities (HT29; Log10 Concentration −8.0): 1.216
- Percent Growth (HT29; Log10 Concentration −8.0): 107%
- GI50 (KM12): 14.2 µM
- TGI (KM12): 3.13E−5
- Mean Optical Densities (KM12; Log10 Concentration −4.0): 0.105
- Percent Growth (KM12; Log10 Concentration −4.0): −74%
- Mean Optical Densities (KM12; Log10 Concentration −5.0): 1.680
- Percent Growth (KM12; Log10 Concentration −5.0): 72%
- Mean Optical Densities (KM12; Log10 Concentration −6.0): 2.184
- Percent Growth (KM12; Log10 Concentration −6.0): 101%
- Mean Optical Densities (KM12; Log10 Concentration −7.0): 2.151
- Percent Growth (KM12; Log10 Concentration −7.0): 99%
- Mean Optical Densities (KM12; Log10 Concentration −8.0): 2.117
- Percent Growth (KM12; Log10 Concentration −8.0): 97%
- GI50 (SN12C): 4.4 µM
- TGI (SN12C): 2.80E−5
- Mean Optical Densities (SN12C; Log10 Concentration −4.0): 0.189
- Percent Growth (SN12C; Log10 Concentration −4.0): −64%
- Mean Optical Densities (SN12C; Log10 Concentration −5.0): 0.932
- Percent Growth (SN12C; Log10 Concentration −5.0): 28%
- Mean Optical Densities (SN12C; Log10 Concentration −6.0): 1.835
- Percent Growth (SN12C; Log10 Concentration −6.0): 90%
- Mean Optical Densities (SN12C; Log10 Concentration −7.0): 1.898
- Percent Growth (SN12C; Log10 Concentration −7.0): 94%
- Mean Optical Densities (SN12C; Log10 Concentration −8.0): 1.940
- Percent Growth (SN12C; Log10 Concentration −8.0): 97%
- GI50 (TK-10): 3.91 µM
- TGI (TK-10): 1.53E−5
- Mean Optical Densities (TK-10; Log10 Concentration −4.0): 0.069
- Percent Growth (TK-10; Log10 Concentration −4.0): −94%
- Mean Optical Densities (TK-10; Log10 Concentration −5.0): 1.338
- Percent Growth (TK-10; Log10 Concentration −5.0): 21%
- Mean Optical Densities (TK-10; Log10 Concentration −6.0): 2.166
- Percent Growth (TK-10; Log10 Concentration −6.0): 92%
- Mean Optical Densities (TK-10; Log10 Concentration −7.0): 2.198
- Percent Growth (TK-10; Log10 Concentration −7.0): 95%
- Mean Optical Densities (TK-10; Log10 Concentration −8.0): 2.185
- Percent Growth (TK-10; Log10 Concentration −8.0): 94%
- GI50 (MDA-MB-231/ATCC): 10.4 µM
- TGI (MDA-MB-231/ATCC): 2.64E−5
- Mean Optical Densities (MDA-MB-231/ATCC; Log10 Concentration −4.0): 0.200
- Percent Growth (MDA-MB-231/ATCC; Log10 Concentration −4.0): −72%
- Mean Optical Densities (MDA-MB-231/ATCC; Log10 Concentration −5.0): 1.153
- Percent Growth (MDA-MB-231/ATCC; Log10 Concentration −5.0): 52%
- Mean Optical Densities (MDA-MB-231/ATCC; Log10 Concentration −6.0): 1.525
- Percent Growth (MDA-MB-231/ATCC; Log10 Concentration −6.0): 95%
- Mean Optical Densities (MDA-MB-231/ATCC; Log10 Concentration −7.0): 1.568
- Percent Growth (MDA-MB-231/ATCC; Log10 Concentration −7.0): 106%
- Mean Optical Densities (MDA-MB-231/ATCC; Log10 Concentration −8.0): 1.619
- Percent Growth (MDA-MB-231/ATCC; Log10 Concentration −8.0): 106%
- GI50 (MDA-MB-468): 1.87 µM
- TGI (MDA-MB-468): 8.56E−6
- Mean Optical Densities (MDA-MB-468; Log10 Concentration −4.0): 0.228
- Percent Growth (MDA-MB-468; Log10 Concentration −4.0): −71%
- Mean Optical Densities (MDA-MB-468; Log10 Concentration −5.0): 0.737
- Percent Growth (MDA-MB-468; Log10 Concentration −5.0): −5%
- Mean Optical Densities (MDA-MB-468; Log10 Concentration −6.0): 1.156
- Percent Growth (MDA-MB-468; Log10 Concentration −6.0): 66%
- Mean Optical Densities (MDA-MB-468; Log10 Concentration −7.0): 1.377
- Percent Growth (MDA-MB-468; Log10 Concentration −7.0): 104%
- Mean Optical Densities (MDA-MB-468; Log10 Concentration −8.0): 1.328
- Percent Growth (MDA-MB-468; Log10 Concentration −8.0): 95%
- GI50 (OVCAR-3): 3.86 µM
- TGI (OVCAR-3): 1.59E−5
- Mean Optical Densities (OVCAR-3; Log10 Concentration −4.0): 0.031
- Percent Growth (OVCAR-3; Log10 Concentration −4.0): −94%
- Mean Optical Densities (OVCAR-3; Log10 Concentration −5.0): 0.743
- Percent Growth (OVCAR-3; Log10 Concentration −5.0): 24%
- Mean Optical Densities (OVCAR-3; Log10 Concentration −6.0): 1.396
- Percent Growth (OVCAR-3; Log10 Concentration −6.0): 87%
- Mean Optical Densities (OVCAR-3; Log10 Concentration −7.0): 1.594
- Percent Growth (OVCAR-3; Log10 Concentration −7.0): 107%
- Mean Optical Densities (OVCAR-3; Log10 Concentration −8.0): 1.551
- Percent Growth (OVCAR-3; Log10 Concentration −8.0): 102%
- GI50 (OVCAR-8): 11.1 µM
- TGI (OVCAR-8): 3.06E−5
- Mean Optical Densities (OVCAR-8; Log10 Concentration −4.0): 0.184
- Percent Growth (OVCAR-8; Log10 Concentration −4.0): −61%
- Mean Optical Densities (OVCAR-8; Log10 Concentration −5.0): 1.385
- Percent Growth (OVCAR-8; Log10 Concentration −5.0): 59%
- Mean Optical Densities (OVCAR-8; Log10 Concentration −6.0): 1.997
- Percent Growth (OVCAR-8; Log10 Concentration −6.0): 98%
- Mean Optical Densities (OVCAR-8; Log10 Concentration −7.0): 2.055
- Percent Growth (OVCAR-8; Log10 Concentration −7.0): 102%
- Mean Optical Densities (OVCAR-8; Log10 Concentration −8.0): 2.052
- Percent Growth (OVCAR-8; Log10 Concentration −8.0): 101%
- GI50 (A549/ATCC): 20.5 µM
- TGI (A549/ATCC): 6.23E−5
- Mean Optical Densities (A549/ATCC; Log10 Concentration −4.0): 0.267
- Percent Growth (A549/ATCC; Log10 Concentration −4.0): −21%
- Mean Optical Densities (A549/ATCC; Log10 Concentration −5.0): 1.536
- Percent Growth (A549/ATCC; Log10 Concentration −5.0): 82%
- Mean Optical Densities (A549/ATCC; Log10 Concentration −6.0): 1.748
- Percent Growth (A549/ATCC; Log10 Concentration −6.0): 97%
- Mean Optical Densities (A549/ATCC; Log10 Concentration −7.0): 1.802
- Percent Growth (A549/ATCC; Log10 Concentration −7.0): 101%
- Mean Optical Densities (A549/ATCC; Log10 Concentration −8.0): 1.778
- Percent Growth (A549/ATCC; Log10 Concentration −8.0): 99%
